Here are results for three compounds from patent US20150209275A1, “Fast Dissolving Ocular Insert” (UNIVERSITY OF THE WITWATERSRAND, JOHANNESBURG, priority 2012, published 2015).

The subject of one series is CAM. The experiment in a line: Modified Hen Egg Chorioallontoic (HET-CAM) ocular toxicity test. The conditions noted are these: 0.3 mL sample on CAM, 5 minutes. The procedure: The methodology involved using hen's eggs (50-60 g fertile) that were purchased from a local hatchery (Bruce Hatcheries, South Africa) and less than a week old. The eggs were placed in commercial incubators (Surehatch, Brakenfell, South Africa) and rotated every 12 hours. On day 3, a hole was made and the albumin was removed. The eggs were sealed by sterile heated parafilm and left in an equatorial position. On day 5 and everyday thereafter eggs were candled for viability and non-viable ones were discarded. On day 10, a window (2×2 cm) was made and 2-3 mL saline (0.9% NaCl) was added and eggs were returned to the incubator. […] The eggs were then dosed with 0.3 mL of samples and observed for 5 minutes for any effects of injury in accordance with Table 11 and this was noted. Saline was used as a control for comparison purposes. Eggs were scored for severity of any reaction and time taken to occur (Table 11). At the end of the assay the embryos were discarded immediately by placing the eggs into a freezer −80° C. The following features were used for observation of injury: hemorrhage, vascular lysis and coagulation. FIG. 9 depicts the procedure for the test.
The period taken for any untoward reaction to occur was noted and the irritation threshold was determined ([…] concentration of samples required for a minimal reaction to occur). The irritation score was calculated by means of Equation 4.

For series [1] the following is noted: as an oral drug; cited from earlier work.
Another series relates to Excised rabbit corneas. Kind of series: Ex vivo permeation, Franz diffusion cell. It counts as in vitro ADME. The conditions noted are these: excised rabbit cornea. The method, then:
Franz diffusion cell apparatus was used to conduct ex vivo permeation studies. Excised rabbit corneas (11.83±0.04 mm in diameter and area […]) were mounted on the Franz diffusion cell apparatus (Permagear, Arnie Systems, USA) connected to a heating bath system for temperature control. The diffusion cell donor chamber was filled with 2 mL Simulated tear (lacrimal) fluid (SLF) (Gonjari et al., 2009) (which was maintained to simulate tear volume). 12 mL Simulated Aqueous Humor (SAH, pH 7.4, 37° C.) (Giannola et al., 2007) solution was contained in the receptor chamber. The cornea was placed such that the surface was in contact with the receptor solution which was continuously stirred by a magnetic stirrer at 20 rpm to simulate blinking. […] Aliquots of sample were withdrawn from the receptor compartment at regular intervals (30, 60, 120, 180, 240 minutes and 24 hours after insertion) and replaced with an equal volume of dissolution medium. Samples were then subjected to the quantification of drug through spectrophotometric analysis at 295 nm (Hewlett Packard 8453 Spectrophotometer, Germany) to determine the drug release and flux (rate of drug permeation per unit area). Drug flux values were calculated at the steady state per unit area by regression analysis of permeation. Drug flux values were calculated employing Equation 7. […]

Turning to `CCCCCCCCCCCCOS(=O)(=O)[O-].[Na+]` [SDS, Sodium Dodecyl Sulphate], the “HET-CAM Inference” value with CAM was “Severe”. Besides, in the series on CAM (scale 0-21, mean of 3 values, Sulphate), the “IS (irritation score)” value is on record as 10.4. The “HET-CAM Score” value in the series with CAM (score 0-3 per Table 11, mean of 3 values) turned out to be 2.5.
As for `CC(C)(C)NC[C@H](O)COc1nsnc1N1CCOCC1` [timolol], the BCS class result in series [1] is listed as “class 1”.
Regarding “Timolol maleate salt [Pure drug dispersion]”, the “steady state drug flux” value with Excised rabbit corneas (SLF donor, SAH pH 7.4, 37° C. receptor) is given as 0.000378 mg.cm^−2.min^−1. Further, the “Kp (permeability co-efficient)” value in the series with Excised rabbit corneas (mean of 3 values) amounted to 2 ×10⁻⁶ cm/s.
